{"source": "patent US6846802B2", "about": "“Macrocyclic NS3-serine protease inhibitors of hepatitis C virus comprising N-cyclic P2 moieties” (priority 2000, dated 2005)", "note": "Starred links: 1 amine or outer side, 2 acyl side, 3 side chain; linkers in the order of their positions; H or OH if unused. Positions of bridges follow the written chain, without caps; N, C: chain ends. Non-standard residues stand in square brackets, D forms with d. Residues, ends and D or L forms follow the SMILES beside them. Tic(7-O(CH2)6CO) = O=C([C@@H]1Cc2ccc(OCCCCCCC(=O)[*:3])cc2CN1[*:1])[*:2]; X1 = CCC[C@H](N[*:1])C(=O)C(=O)[*:2]; Chg = N[C@H](C(=O)O)C1CCCCC1; Phg = N[C@H](C(=O)O)c1ccccc1", "data": [{"biological_target": "HCV serine protease (subtype 1b, 1bNS4A21-32GS-GS NS3-81 I17K) in HeLa/Huh7 cells (Hepatitis C virus genotype 1b, UniProt P26663, I1043K)", "assay_type": "cell-based", "units": {"Cell-Based Assay": "µM"}, "values": [{"compound": "CCC[C@H](NC(=O)[C@@H]1Cc2ccc3cc2CN1C(=O)[C@H](C1CCCCC1)NC(=O)CCCCCCO3)C(=O)C(=O)NCC(=O)N[C@H](C(=O)N(C)C)c1ccccc1", "note": "[Compound 57B] ([Chg][Tic(7-O(CH2)6CO)][X1]G[Phg]-NMe2; lactam N-2)", "Cell-Based Assay": 1.5}, {"compound": "CCCC(NC(=O)[C@@H]1C[C@@H]2CN1C(=O)[C@H](C1CCCCC1)NC(=O)Cc1cccc(c1)OCCCCO2)C(=O)C(=O)NCC(=O)N[C@H](C(=O)OC(C)(C)C)c1ccccc1", "note": "(mixture of isomers) [Compound 5]", "Cell-Based Assay": 0.6}, {"compound": "CCCC(NC(=O)[C@@H]1Cc2ccc3cc2CN1C(=O)[C@H](C1CCCCC1)NC(=O)CCCCCCO3)C(=O)C(=O)NCC(=O)N[C@H](C(=O)OC(C)(C)C)c1ccccc1", "note": "(mixture of isomers) [Compound 58]", "Cell-Based Assay": 2}, {"compound": "CCCC(NC(=O)[C@@H]1C[C@@H]2CN1C(=O)[C@H](C1CCCCC1)NC(=O)Cc1cccc(c1)OCCCO2)C(=O)C(=O)NCC(=O)OCc1ccccc1", "note": "(stereo partly shown) [Compound 23]", "Cell-Based Assay": 3}, {"compound": "CCCC(NC(=O)[C@@H]1C[C@@H]2CN1C(=O)[C@H](C1CCCCC1)NC(=O)Cc1cccc(c1)OCCCO2)C(=O)C(=O)NCC(=O)N[C@H](C(=O)OC(C)(C)C)c1ccccc1", "note": "(stereo partly shown) [Compound 2]", "Cell-Based Assay": 2}, {"compound": "CCC[C@@H](NC(=O)[C@@H]1C[C@@H]2CN1C(=O)[C@H](C1CCCCC1)NC(=O)Cc1cccc(c1)OCCCCO2)C(=O)C(=O)NCC(=O)N[C@H](C(=O)N(C)C)c1ccccc1", "note": "[Compound 4A]", "Cell-Based Assay": 2.5}, {"compound": "CCCC(NC(=O)[C@@H]1C[C@@H]2CN1C(=O)[C@H](C1CCCCC1)NC(=O)CCc1cccc(c1)OCCO2)C(=O)C(=O)NCC(=O)N[C@H](C(=O)OC(C)(C)C)c1ccccc1", "note": "(stereo partly shown) [Compound 21]", "Cell-Based Assay": 2}, {"compound": "CCCC(NC(=O)[C@@H]1C[C@@H]2CN1C(=O)[C@H](C1CCCCC1)NC(=O)Cc1cccc(c1)OCCO2)C(=O)C(=O)NCC(=O)N[C@H](C(=O)OC(C)(C)C)c1ccccc1", "note": "(mixture of isomers) [Compound 8]", "Cell-Based Assay": 3.5}, {"compound": "CCC[C@H](NC(=O)[C@@H]1C[C@@H]2CN1C(=O)[C@H](C1CCCCC1)NC(=O)Cc1cccc(c1)OCCCCO2)C(=O)C(=O)NCC(=O)N[C@H](C(=O)N(C)C)c1ccccc1", "note": "[Compound 4B]", "Cell-Based Assay": 1.8}, {"compound": "CCC[C@H](NC(=O)[C@@H]1C[C@@H]2CN1C(=O)[C@H](C(C)(C)C)NC(=O)Cc1cccc(c1)OCCCO2)C(=O)C(=O)NCC(=O)N[C@H](C(=O)N(C)C)c1ccccc1", "note": "[Compound 12B]", "Cell-Based Assay": 5.2}]}]}
